Data published in US20040081618A1, “Method of screening physiologically active substance” (priority 2000, published 2004).

What was measured:
[1] = test system: HL-60 cells; test: Analysis of expression using DNA microarray (740 clones from DNA microbeads screening) in TPA-treated differentiated HL-60 cells; format: cell-based, human; settings: 4 mM DGE 100 μL in 10 mL, 6 hours, then TPA, RNA 4 hours thereafter, expression ratio 0.55 or less or 1.8 or more
Method: The reaction for PCR was carried out by using a primer pair having the sequences shown in SEQ ID NO: 10 and SEQ ID NO: 11 of Sequence Listing, with the 740 clones of plasmids obtained in Example 3 as a template. Next, the amplified product was purified by ethanol precipitation, and thereafter the product was dissolved in 1×SolutionT (manufactured by Takara Shuzo Co., Ltd.) so as to have a concentration of 0.3 μg/μl, and this solution was used as a spotting solution. The spotting solution was spotted on MAS-coated slide glass (manufactured by Matsunami Glass), amino-group carrying slide glass, by using Affymetrix 417 Arrayer (manufactured by Affymetrix). The spotted glass was incubated at 37° C. and humidity of 90% for 1 hour, and thereafter cross-linked by UV irradiation at energy of 60 mJ/cm^2. Further, the slide glass was washed once with 0.2% SDS and then twice with distilled water, and thereafter immersed in a blocking solution comprising 2.75 g of succinic anhydride, 162.5 ml of N-methyl-2-pyrrolidone and 15 ml of 1 M borate buffer (pH 8.0) for 20 minutes, to block free amino groups. Next, the slide glass was washed twice with distilled water and subjected to thermal denaturation in boiling water for 2 minutes, and rapidly cooled in 100% ethanol at ice temperature. Thereafter, the slide glass was dried by a low-speed centrifugation at 1000 rpm or so, and used for the following experiment. […]
A PolyA(+) RNA was prepared from HL-60 cells prepared in item (2) of Example 4 by using Trizol Reagent (manufactured by Gibco BRL) and Oligotex-dT30 <Super> (manufactured by Takara Shuzo Co., Ltd.) in accordance with the protocol for each of the kits. Next, each of cDNAs labeled with Cy3 and Cy5 was prepared by using RNA Fluorescence Labeling Core Kit (M-MLV Version) (manufactured by Takara Shuzo Co., Ltd.) in accordance with the protocol for the kit with 1.0 μg of PolyA(+) RNA as a template, and their cDNAs were mixed in the combinations of the sample RNA shown in Table 8.
Next, hybridization of the DNA microarray prepared in item (1) of Example 4 with the above-mentioned mixtures (4 kinds) of Cy3-labeled cDNA and Cy5-labeled cDNA was carried out in accordance with the instruction manual of IntelliGene (manufactured by Takara Shuzo Co., Ltd.), and the array was subjected to procedures of washing and drying. Subsequently, the fluorescence images were obtained for Cy3 (excitation wavelength: 532 nm, detection wavelength: 570 nm) and Cy5 (excitation wavelength: 635 nm, detection wavelength: 660 nm) by using Affymetrix 428 Array Scanner (manufactured by Affymetrix). […]

[2] = test system: HL-60 cells; test: Gene expression analysis with Human Cytokine CHIP (ver. 1.0) in TPA-treated neutrophile-like differentiated HL-60 cells; format: cell-based; settings: genes showing fluctuation by TPA; 100 μL of 4 mM DGE aqueous solution added to 10 mL of 10^6 cells/mL, 6 hours, then TPA, total RNA 4 hours thereafter
Method: HL-60 cells (ATCC CCL-240) were suspended in RPMI 1640 medium (manufactured by Bio Whittaker, 12-702F) containing 10% fetal bovine serum (manufactured by JRH Biosciences) and 1.3% dimethyl sulfoxide, and the cells were cultured at 37° C. for one week in the presence of 5% carbon dioxide gas to induce differentiation to neutrophile-like cells.
The cells obtained as described above were collected by centrifugation, and suspended in 10% fetal bovine serum-containing RPMI 1640 medium so as to have a concentration of 10^6 cells/mL, and 10-mL portions of the cells were added to a 10-cm petri dish. […]
Twenty-five micrograms of each of the total RNAs obtained as described above and 100 pg of λ poly A^+ RNA-A (manufactured by Takara Shuzo Co., Ltd., TX802) were subjected to synthesis reaction of fluorescence-labeled cDNA by using RNA Fluorescence Labeling Core Kit (manufactured by Takara Shuzo Co., Ltd., TX807) and 1 mM FluoroLink Cy3-dUTP or Cy5-dUTP (manufactured by Amersham-Pharmacia Biotech, PA53022(Cy3), PA55022(Cy5) in accordance with the instruction for the kit and the resulting cDNA was purified. The solutions of fluorescence-labeled DNA were mixed in the combination of Table 4, and the mixture was subjected to a chloroform-isoamyl alcohol (24:1) extraction. […]

[3] = test system: plastic adherent monocytes; test: Gene expression analysis with Human Cytokine CHIP (ver. 2.0) in LPS-treated plastic adherent monocytes; format: cell-based
Method: Four-hundred milliliters of blood was collected from a human normal individual donor. The collected blood was diluted 2-folds with PBS(−), overlaid on Ficoll-paque (manufactured by Pharmacia), and centrifuged at 500×g for 20 minutes. The peripheral blood mononuclear cells (PBMCs) in the intermediate layer was collected with a pipette, and washed with RPMI 1640 medium (manufactured by Bio Whittaker). The collected PBMCs were suspended in a storage solution of 90% FCS (manufactured by JRH Biosciences)/10% dimethyl sulfoxide, and stored in liquid nitrogen. During the experiment, these stored PBMCs were rapidly melted in water bath at 37° C., and washed with RPMI 1640 medium containing 10 μg/ml Dnase (manufactured by Calbiochem). Thereafter, the number of living cells was calculated by trypan blue staining method, and subjected to each experiment.
PBMCs were suspended in RPMI 1640 medium containing 5% human serum of blood type-AB, 0.1 mM nonessential amino acid, 1 mM sodium pyruvate, 2 mM L-glutamine (hereinabove manufactured by Bio Whittaker), 10 mM HEPES (manufactured by nakalai tesque), and 1% streptomycin-penicillin (manufactured by Gibco BRL) (hereinafter simply referred to as “5HRPMI medium”) so as to have a concentration of 1×10^7 cells/mL. Thereafter, 15 ml of the suspension was spread on a 100-mm petri dish (manufactured by Asahi Techno Glass), and the cells were incubated in a wet-type incubator at 37° C. in the presence of 5% CO2 for 1.5 hours. […]
The synthesis of cDNA was carried out in accordance with the method described in item (2) of Example 1, provided that the combination of the solutions of fluorescence-labeled DNA was in accordance with that shown in Table 6. […]
The fluorescence signal was scanned for each spot of the above-mentioned chip by using Affymetrix 428 Array Scanner (manufactured by Takara Shuzo Co., Ltd.). The fluorescence signal was quantified for each spot by using ImaGene (manufactured by Takara Shuzo Co., Ltd., BD001) on the bases of the image data. […]

[4] = clones decreased by treatment with TPA
[5] = clones increased by treatment with TPA

Compound: O=C1C=CC(CO)OC1O [DGE, L-glycero-1,5-epoxy-1αβ,6-dihydroxy-cis-hex-3-en-2-one]
- Expression of Group C-3 clones (NDRG1, ADAR, SF3B2, ILF3, VARS2, SEQ ID NO: 12; Tables 9, 11) [1, 4]: further decreased
- Expression of Group D-3 clones (EEF1A1, RPL17, RPL24, SFRS2, TPT1, UQCRB, RPS15A, RPL27; Tables 10, 11) [1, 4]: further increased
- Expression of Group A-3 clones (STAT6, FLJ22298 fis clone HRC04637; Tables 9, 11) [1, 5]: further decreased
- Expression of Group B-3 clones (SUI1, HSPC014; Tables 9, 11) [1, 5]: further increased
- Expression of Group A-1 genes (BMP-6, CCR-1, HGF, ICAM-1, IL-1β, IL-16, LIF, Osteopontin, TNF-α, Neuropilin-1; Table 5) [2]: suppressed
- Expression of Group B-1 genes (Heme oxygenase-1, Thioredoxin reductase-1; Table 5) [2]: accelerated
- Increase by LPS in expression of Group E genes (IL2RA, IL6, CD166, IRF1, IL15RA, NFKB1, CASP1, IL1B, TNF-α, GRO1, IL1A, INHBA, IL7R, PBEF, LARC, IL8; Table 7) ([3]; 10 μL of 20 mM DGE aqueous solution in 10 mL medium, 4 hours, then LPS, total RNA 4 hours thereafter): suppressed
- Expression of Group G genes (Heme oxygenase-1 HMOX1; Table 7) ([3]; DGE+LPS versus negative control): increased
- Expression of Group F genes (CSF1R, CXCR4, ENG; Table 7) ([3]; genes not fluctuating by LPS, DGE+LPS versus negative control): decreased
